According to patent US20180369268A1, “METHODS FOR IDENTIFYING INHIBITORS OF "STIMULATOR OF INTERFERON GENE"- DEPENDENT INTERFERON PRODUCTION” (ADURO BIOTECH, INC., priority 2015, published 2018):

target: T1, hSTING HAQ allele (Homo sapiens, UniProt Q86WV6, G230A/H232R/R293Q); test: Differential scanning fluorometry (DSF) Tm shift with purified STING AA140-379; assay type: binding; conditions: DSF, ligand 1 mM, 1 mg/ml STING AA140-379; read-out: hSTING Tm Shift HAQ
T1 construct: DNA encoding amino acids 140-379 (amino acid numbering corresponding to Swiss Prot Q86WV6); 6xHIS-SUMO (with TEV site) (N, cleaved yes); made in house; host or cells: Rosetta2 (DE3) E. coli
Excerpt: DNA encoding amino acids 140-379 (amino acid numbering corresponding to Swiss Prot Q86WV6) was amplified from plasmids containing the full length sequence of human STING alleles via polymerase chain reaction with the following primers: forward […] (SEQ ID NO: 9) and reverse […] (SEQ ID NO: 10). STING variant alleles were assigned according to Yi, et al, (2013), PLoS One, 8(10), e77846 (DOI: 10.1371/journal.pone.0077846. PCR products were cloned into bacterial expression vector encoding a N-terminal hexa-histidine affinity tag (6×HIS) followed by a small ubiquitin-like modifier (SUMO) solubility sequence (Butt, et al, (2005) Protein expression and purification 43.1, 1-9) and tobacco etch virus protease cleavage site (TEV) using ligation independent cloning (Aslanidis, et al, (1990) Nucleic acids research, 18.20, 6069-6074).
Plasmids encoding 6×HIS-SUMO-TEV-STING amino acids 140-379 were transformed into Rosetta2 (DE3) E. coli cells (EMD Millipore) for protein expression. Cells were grown in lysogeny broth at 37° C. until a […] absorbance of 0.6 was reached. Cells were then transferred to 18° C. and protein expression was induced overnight by the addition of isopropyl β-D-1-thiogalactopyranoside to the media at a concentration of 0.25 mM. Cells were harvested by centrifugation at 6,000 times gravity for 10 minutes. Cell pellets were re-suspended on ice in a buffer containing 50 mM Tris hydrochloride (Tris-HCl) pH 7.5, 500 mM sodium chloride (NaCl), 20 mM imidazole, 10% glycerol, 1 mM tris(2-carboxyethyl)phosphine hydrochloride (TCEP) and protease inhibitor tablet (Pierce) (Buffer A). Cells were lysed using an S-450D sonifier (Emmerson industrial) on ice. Cell lysate was centrifuged at 15,000 times gravity for 30 minutes at 4° C. Soluble material was applied to nickel-nitrilotriacetic acid (Ni-NTA) coupled Sepharose CL-6B (Qiagen) for 1 hour with gentle rocking at 4° C. After transfer to a gravity flow poly-prep column (Bio-Rad), resin was washed extensively in buffer A. Protein was eluted from the column in a buffer containing 20 mM Tris-HCl pH 7.5, 150 mM NaCl, 300 mM imidazole, 10% glycerol and 0.5 mM TCEP. To remove the 6×HIS-SUMO tag eluted protein was mixed with TEV protease (Sigma) at a ratio of 1:250 (w:w) and dialyzed overnight against a buffer containing 20 mM Tris-HCl pH 7.5, 150 mM NaCl, 5 mM imidazole, 10% glycerol and 0.5 mM TCEP. TEV protease and 6×HIS-SUMO tags were depleted by the addition of Ni-NTA resin (Qiagen) to the sample, purified STING amino acids 140-379 was collected by removal of the resin using a poly-prep column STING AA140-379 was concentrated with a 10,000 Dalton molecular weight cutoff centrifuge concentrator (EMD Millipore) to a final concentration of approximately 10 mg/ml. Protein was aliquoted, flash frozen in liquid nitrogen and stored at −80° C. until use.
Differential scanning fluorometry (DSF) is a technique that measures the ability of ligands to bind to and stabilize purified proteins (Niesen, et al, (2007) Nature protocols 2.9, 2212-2221). The protein is heated in the presence of a dye that binds to and fluoresces in hydrophobic environments. The protein is thermally denatured by heating resulting in increased dye binding to the unfolded protein and fluorescence. The temperature midpoint (Tm) of a proteins denaturation is established by calculating the half maximal value of the denaturation curve. The temperature midpoint of the protein in the presence of a ligand is directly related to the affinity of the ligand for the protein and therefore its ability to stabilize the protein at higher temperatures.
DSF was performed in a 20 μL reaction comprising 20 mM Tris-HCl pH 7.5, 150 mM NaCl, 1:500 dilution of SYPRO Orange (Life Technologies), 1 mg/ml purified STING AA140-379 protein and ligand at a concentration of 1 mM. Wild type hSTING, HAQ allele hSTING and/or REF allele hSTING were used with scaffold molecules of the invention as listed in Table 2.

T1 sequence (Q86WV6 140-379 G230A/H232R/R293Q): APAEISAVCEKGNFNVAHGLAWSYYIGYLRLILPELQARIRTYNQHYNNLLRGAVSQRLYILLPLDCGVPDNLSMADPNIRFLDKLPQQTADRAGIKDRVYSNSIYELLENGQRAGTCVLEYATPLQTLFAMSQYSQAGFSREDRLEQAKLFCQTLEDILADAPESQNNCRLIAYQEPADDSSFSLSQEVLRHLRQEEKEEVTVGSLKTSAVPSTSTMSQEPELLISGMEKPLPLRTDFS

Compound	ΔTm at 1000 µM [°C]
Nc1nc(N)c2ncn([C@@H]3O[C@@H]4CO[P@@](=O)(S)O[C@H]5[C@@H](O)[C@H](n6cnc7c(N)nc(N)nc76)O[C@@H]5CO[P@@](=O)(S)O[C@H]4[C@H]3O)c2n1 [Compound 23, (2R,3R,3aS,5R,7aR,9R,10R,10aS,12R,14aR)-2,9-bis(2,6-diamino-9H-purin-9-yl)-3,10-dihydroxy-5,12-dimercaptooctahydro-2H,7H-difuro[3,2-d:3′,2′-j][1,3,7,9]tetraoxa[2,8]diphosphacyclododecine 5,12-dioxide]	15.1
Nc1nc(N)c2ncn([C@@H]3O[C@@H]4CO[P@@](=O)(S)O[C@H]5[C@@H](O)[C@H](n6cnc7c(N)nc(N)nc76)O[C@@H]5CO[P@](=O)(S)O[C@H]4[C@H]3O)c2n1 [Compound 23a, (2R,3R,3aS,5R,7aR,9R,10R,10aS,12S,14aR)-2,9-bis(2,6-diamino-9H-purin-9-yl)-3,10-dihydroxy-5,12-dimercaptooctahydro-2H,7H-difuro[3,2-d:3′,2′-j][1,3,7,9]tetraoxa[2,8]diphosphacyclododecine 5,12-dioxide]	6.3
CC(C)C(=O)Nc1nc2c(ncn2[C@@H]2O[C@@H]3CO[P@@](=O)(S)O[C@H]4[C@@H](F)[C@H](n5cnc6c(=O)[nH]c(NC(=O)C(C)C)nc65)O[C@@H]4CO[P@@](=O)(S)O[C@H]3[C@H]2F)c(=O)[nH]1 [Compound 32, N,N′-(((2R,3R,3aR,5R,7aR,9R,10R,10aR,12R,14aR)-3,10-difluoro-5,12-dimercapto-5,12-dioxidooctahydro-2H, 7H-difuro[3,2-d:3′,2′-j][1,3,7,9]tetraoxa[2,8]diphosphacyclododecine-2,9-diyl)bis(6-oxo-6,9-dihydro-1H-purine-9,2-diyl))bis(2-methylpropanamide)]	11.5
Nc1ccn([C@@H]2O[C@@H]3CO[P@@](=O)(S)O[C@H]4[C@@H](F)[C@H](n5cnc6c(N)ncnc65)O[C@@H]4CO[P@@](=O)(S)O[C@H]3[C@H]2F)c(=O)n1 [Compound 37, 4-amino-1-((2R,3R,3aR,5R,7aR,9R,10R,10aR,12R,14aR)-9-(6-amino-9H-purin-9-yl) 3,10-difluoro-5,12-dimercapto 5,12-dioxidooctahydro-2H,7H-difuro[3,2-d:3′,2′-j][1,3,7,9]tetraoxa[2,8]diphosphacyclododecin-2-yl)pyrimidin-2(1H)-one]	10.3
Nc1ccn([C@@H]2O[C@@H]3CO[P@](=O)(S)O[C@H]4[C@@H](F)[C@H](n5cnc6c(N)ncnc65)O[C@@H]4CO[P@@](=O)(S)O[C@H]3[C@H]2F)c(=O)n1 [Compound 37a, 4-amino-1-((2R,3R,3aR,5R,7aR,9R,10R, 10aR,12S,14aR)-9-(6-amino-9H-purin-9-yl)-3,10-difluoro-5,12-dimercapto-5,12-dioxidooctahydro-2H,7H-difuro[3,2-d: 3′,2′-j][1,3,7,9]tetraoxa[2,8]diphosphacyclododecin-2-yl)pyrimidin-2(1H)-one]	6.4

The remaining lines, values ahead:

ΔTm at 1000 µM [°C]	Compound
7.6	CC(C)C(=O)Nc1nc2c(ncn2[C@@H]2O[C@@H]3CO[P@@](=O)(S)O[C@@H]4[C@H](O)[C@@H](CO[P@@](=O)(S)O[C@H]3[C@H]2O)O[C@H]4n2cnc3c(NC(=O)c4ccccc4)ncnc32)c(=O)[nH]1 [Compound 42, dithio-[RP, RP]-cyclic-[ibG(3′,5′)p-BzA(2′,5′)p]]
10.5	Nc1nc2c(ncn2[C@@H]2O[C@@H]3CO[P@](=O)(S)O[C@@H]4[C@H](O)[C@@H](CO[P@](=O)(S)O[C@H]3[C@H]2O)O[C@H]4n2cnc3c(N)ncnc32)c(=O)[nH]1 [Compound 43]
2.3	Nc1ncnc2c1ncn2[C@H]1O[C@H]2CO[P@](=O)(S)O[C@@H]3[C@H](O)[C@@H](n4cnc5c(N)ncnc54)O[C@H]3CO[P@](=O)(S)O[C@@H]2[C@@H]1O [Compound 48, (2S,3S,3aR,5S,7aS,9S,10S,10aR,12S,14aS)-2,9-bis(6-amino-9H-purin-9-yl)-3,10-dihydroxy-5,12-dimercaptooctahydro-2H,7H-difuro[3,2-d:3′,2′-j][1,3,7,9]tetraoxa[2,8]diphosphacyclododecine 5,12-dioxide]
6.6	Nc1ncnc2c1ncn2[C@H]1O[C@H]2CO[P@@](=O)(S)O[C@@H]3[C@H](O)[C@@H](n4cnc5c(N)ncnc54)O[C@H]3CO[P@](=O)(S)O[C@@H]2[C@@H]1O [Compound 48a, Triethylammonium (2S,3S,3aR,5R,7aS,9S,10S,10aR,12S,14aS)-2,9-bis(6-amino-9H-purin-9-yl)-3,10-dihydroxyoctahydro-2H, 7H-difuro[3,2-d: 3′,2′-j][1,3,7,9]tetraoxa[2,8]diphosphacyclododecine-5,12-bis(thiolate) 5,12-dioxide]
3.5	Nc1ncnc2c1ncn2[C@H]1O[C@H]2CO[P@@](=O)(S)O[C@@H]3[C@H](O)[C@@H](n4cnc5c(N)ncnc54)O[C@H]3CO[P@@](=O)(S)O[C@@H]2[C@@H]1O [Compound 48b, triethylammonium (2S,3S,3R,5R,7aS,9S,10S,10aR,12R,14aS)-2,9-bis(6-amino-9H-purin-9-yl)-3,10-dihydroxyoctahydro-2H,7H-difuro[3,2-d: 3′,2′-j][1,3,7,9]tetraoxa[2,8]diphosphacyclododecine-5,12-bis(thiolate) 5,12-dioxide]
7.2	C#CCOc1nc(N)nc2c1ncn2[C@@H]1O[C@@H]2COP(=O)(O)O[C@H]3[C@@H](O)[C@H](n4cnc5c(=O)[nH]c(N)nc54)O[C@@H]3COP(=O)(O)O[C@H]2[C@H]1O [compound 25, 2-amino-9-((2R,3R,3aS,7aR,9R,10R,10aS,14aR)-9-(2-amino-6-(prop-2-yn-1-yloxy)-9H-purin-9-yl)-3,5,10,12-tetrahydroxy-5,12-dioxidooctahydro-2H,7H-difuro[3,2-d:3′,2′-j][1,3,7,9]tetraoxa[2,8]diphosphacyclododecin-2-yl)-1,9-dihydro-6H-purin-6-one]

same assay, conditions: read-out: hSTING Tm Shift HAQ

Compound	ΔTm at 1000 µM [°C]
CC(C)(C)[Si](C)(C)O[C@H]1[C@H]2O[P@@](=O)(S)OC[C@H]3O[C@@H](n4cnc5c(N)ncnc54)[C@H](F)[C@@H]3O[P@](=O)(S)OC[C@H]1O[C@H]2n1cnc2c(N)ncnc21 [Compound 6a, dithio-[SP, RP]-cyclic-[3′OTBS-A(2′,5′)p-2′F-A(3′,5′)p]]	20.2
